Key:
β-glucuronidase [1] = biological target: T1, β-glucuronidase (Escherichia coli, UniProt P05804); assay: Suppression of production of volatile compound from urine with added β-glucuronidase (GC-MS); assay type: biochemical; details: 0.01 wt %; human urine plus enzyme, 25° C., 22 hours
T1 construct: purchased Sigma-Aldrich Corporation
Procedure: 9.9 mL of a human urine sample (a mixture of urine from five humans), from which microorganisms were filtered with a 0.2-μm filter (Millex GV manufactured by Millipore Corporation) were added to a bottle which had been preliminarily subjected to γ-ray sterilization immediately after the collection, and subsequently 0.1 mL of an Escherichia coli-derived β-glucuronidase Type VII-A (purchased from Sigma-Aldrich Corporation) aqueous solution adjusted to 250 units/mL was added and mixed. The mixture was incubated in a thermostat bath at 25° C. and allowed to react for 22 hours. An initial urine sample prepared by adding 0.1 mL of sterilized ion exchanged water as substitution of the enzyme solution, was similarly incubated in a thermostat bath for 22 hours.
9.9 mL of a human urine sample (a mixture of urine from five humans) which had been subjected to a microbe-removing operation with a 0.2-μm filter immediately after the collection and 10 μL of a 10 wt % 8-cyclohexadecen-1-one DPG solution were added to a bottle γ-ray sterilized in advance, and subsequently 0.1 mL of a […] aqueous solution adjusted to 250 units/mL was added and mixed. The mixture was incubated in a thermostat bath at 25° C. and allowed to react for 22 hours. The concentration of 8-cyclohexadecen-1-one in the reaction solution was 0.01 wt %. Further, a product prepared by adding 0.1 mL of an enzyme solution to 9.9 mL of the microbe-removed urine sample was used as a control, a product prepared by adding 0.1 mL of ion exchanged water to 9.9 mL of the microbe-removed urine sample was used as a blank, and the respective products were allowed to react for 22 hours in the same manner.
After the completion of the reaction, to 9 mL of the reaction solution, a benzyl benzoate ethanol solution was added as an internal standard. The mixture was extracted twice with 10 mL of diethyl ether. The extracted solutions were combined and dried over anhydrous magnesium sulfate. After drying, a solid was separated by filtration, and the filtrate was concentrated with a rotary evaporator to prepare a sample for measurement.
Measurement was performed with a gas chromatograph mass spectrometer. The production amount of the volatile compound detected was calculated as a peak area ratio with respect to an internal standard. The production suppression rate for each of volatile components was determined by using the obtained value in accordance with the following equation. Production amount of control=Peak area ratio of control—Peak area ratio of blank Production amount of sample=Peak area ratio of sample−Peak area ratio of blank Production suppression rate (%)=[(Production amount of control −Production amount of sample)/Production amount of control]×100

β-glucuronidase [2] = biological target: T1, β-glucuronidase; assay: Suppression of generation of urine odor in enzyme-added urine, sensory evaluation; details: 0.01 wt %; human urine plus enzyme, 25° C., 2 hours; six panelists
Procedure: Sensory evaluation of odor was performed by six panelists, the evaluation was based on a six-level odor intensity indication method in which the odor intensity was indicated with an evaluation score of 0 to 5. In the evaluation score, “0” indicates no odor, “1” indicates odor which can be slightly perceived (detection threshold), “2” indicates odor which can be perceived to be urine odor but is weak (perception threshold), “3” indicates odor which can be easily perceived to be urine odor, “4” indicates strong urine odor, and “5” indicates extreme urine odor. The odor intensity was determined at an interval of 0.5.
360 μL of a human urine sample (a mixture of urine from five humans), which had been subjected to a microbe-removing operation with a 0.2-μm filter immediately after the collection, and […] of a 10 wt % 8-cyclohexadecen-1-one DPG solution were added to a bottle γ-ray sterilized in advance, and subsequently 40 μL of a β-glucuronidase aqueous solution adjusted to 20 units/mL was added and mixed. The mixture was incubated in a thermostat bath at 25° C. and allowed to react for 2 hours. The concentration of 8-cyclohexadecen-1-one in the reaction solution was 0.01 wt %. […]

T1 sequence (P05804 whole entry): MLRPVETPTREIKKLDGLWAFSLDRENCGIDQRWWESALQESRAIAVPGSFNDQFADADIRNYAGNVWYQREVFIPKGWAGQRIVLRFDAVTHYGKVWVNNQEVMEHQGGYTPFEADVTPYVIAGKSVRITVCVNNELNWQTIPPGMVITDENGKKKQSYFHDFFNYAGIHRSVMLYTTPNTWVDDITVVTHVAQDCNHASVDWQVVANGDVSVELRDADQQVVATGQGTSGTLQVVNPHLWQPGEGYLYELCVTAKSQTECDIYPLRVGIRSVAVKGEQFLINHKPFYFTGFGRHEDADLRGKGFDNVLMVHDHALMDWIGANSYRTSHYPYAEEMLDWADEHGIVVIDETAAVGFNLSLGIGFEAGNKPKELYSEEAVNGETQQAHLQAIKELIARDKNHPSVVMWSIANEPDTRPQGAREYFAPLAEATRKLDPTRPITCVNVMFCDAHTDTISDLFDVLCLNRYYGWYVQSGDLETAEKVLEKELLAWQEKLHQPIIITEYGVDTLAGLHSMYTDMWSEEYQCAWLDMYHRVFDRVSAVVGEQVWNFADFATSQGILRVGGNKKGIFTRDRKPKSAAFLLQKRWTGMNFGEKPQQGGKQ

O=C1CCCCCCC=CCCCCCCC1 [8-Cyclohexadecen-1-one, 8-cyclohexadecen-1-one]
Production of phenol-based compounds and indole from urine (result in words) (β-glucuronidase [1]): suppressed the production of all of phenol-based compounds and indole | Production suppression rate (%) of 1,3-Benzenediol (β-glucuronidase [1]): 100% | Production suppression rate (%) of 1,4-Benzenediol (β-glucuronidase [1]): 73% | Production suppression rate (%) of 2-Methoxy-1,3-benzenediol (β-glucuronidase [1]): 73% | Production suppression rate (%) of 4-Vinyl-2-methoxyphenol (β-glucuronidase [1]): 55% | Production suppression rate (%) of 4-Vinylphenol (β-glucuronidase [1]): 57% | Production suppression rate (%) of Indole (β-glucuronidase [1]): 57% | Production suppression rate (%) of Phenol (β-glucuronidase [1]): 70% | Production suppression rate (%) of p-Cresol (β-glucuronidase [1]): 63% | Generation of urine odor, sensory evaluation (result in words, FIG. 5) (β-glucuronidase [2]): sensuously suppressed the generation of urine odor

Reference: patent US9200269B2, “β-glucuronidase inhibitor” (priority 2007, dated 2015)
